Among the test systems are SNB-19 CNS; SNB-75 CNS; MDA-MB-231 breast; SK-MEL-2 melanoma; HOP-62 NSCLC; SR leukemia; LOX IMVI melanoma; IGROV1 ovarian; MDA-MB-435; NCI-H522 lung.
Holding throughout (experiment): NCI-60 cell line screen, 48 h

Each structure is given as a SMILES string.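 Five concentrations, 48 hours, 96-well plates. At the GI50, growth is halved. TGI marks complete inhibition of growth.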

For the compound `Cc1cn(C2CC(O)C(COC(N)=O)O2)c(=O)[nH]c1=O` (centres undefined), the TGI in the assay on SNB-19 CNS, in the assay on SNB-75 CNS, in the assay on MDA-MB-231 breast, in the assay with SK-MEL-2 melanoma, in the assay on HOP-62 NSCLC and in the assay on SR leukemia was above 100 µM throughout. Further, the TGI in the assay on LOX IMVI melanoma, with IGROV1 ovarian, in the assay with MDA-MB-435 and in the assay with NCI-H522 lung was above 100 µM each time.
In the case of `Nc1no[n+]([O-])c1-c1nnc2c(n1)-c1ccccc1C2=O`, the GI50 was 4.88 µM in the assay with SNB-19 CNS; 17.4 µM in the assay with SNB-75 CNS; 2.89 µM in the assay on MDA-MB-231 breast; 9.13 µM in the assay on SK-MEL-2 melanoma; 2.74 µM in the assay with HOP-62 NSCLC; 2.48 µM in the assay with SR leukemia. The GI50 in the assay on LOX IMVI melanoma is 1.81 µM; with IGROV1 ovarian, 3.02 µM; in the assay on MDA-MB-435, 1.91 µM; in the assay on NCI-H522 lung, 2.02 µM. Also, the TGI was found to be 16.7 µM in the assay on SNB-19 CNS; 34.5 µM in the assay with SNB-75 CNS; 9.4 µM in the assay with MDA-MB-231 breast; 24.4 µM in the assay with SK-MEL-2 melanoma; 10 µM with HOP-62 NSCLC; 4.16 µM in the assay with LOX IMVI melanoma. Also, the TGI in the assay on IGROV1 ovarian was found to be 11.7 µM; in the assay with MDA-MB-435, 3.82 µM; in the assay with NCI-H522 lung, 5.87 µM.

For the origin of these results see PubChem BioAssay (NCI).
